Experimental data as given in PMC11243066, “Synthesis and Biological Evaluation of Novel Biased Mu-Opioid Receptor Agonists” (Molecules, 2024).

How the values were obtained:
mice [1] = experiment: Respiratory depression (blood pO2, blood gas analyzer); details: single i.v. dose 20 mg/kg (morphine 4 mg/kg), 5-40 min
Method: (§2) The mice were group-housed in a controlled temperature environment and subjected to a 12 h light/dark cycle (lights on from 07:00 to 19:00). Food and water were provided ad libitum. All animal procedures were conducted in accordance with the policies and recommendations of the International Association for the Study of Pain and the National Health and Animal Welfare Committee of the Beijing Institute of Pharmacology, with the aim of minimizing the number of animals used and their suffering.

mice [2] = experiment: Acetic acid-induced writhing test; assay type: in vivo, CD-1 mice; details: 20 mg/kg i.v. tail vein
Method: (§1) Food and water were provided ad libitum.
The acetic acid-induced writhing test was performed as described previously. In brief, after pretreatment with the test compound at a dose of 20 mg/kg via intravenous tail vein injection, 1% (v/v) glacial acetic acid was administered intraperitoneally (i.p.) at a dose of 10 mL/kg. Subsequently, the number of writhing responses over a 20 min period was recorded. The antinociception rate was calculated as the percentage of maximal possible effect (%MPE), where %MPE = 100 × (NWV − NWT)/NWV. NWV and NWT represent the average number of writhing responses of the vehicle and test groups, respectively.

mice [3] = experiment: Hot-water tail withdrawal test; assay type: in vivo, CD-1 mice; details: 20 mg/kg i.v. tail vein, 15 min post administration
Method: as §1
The hot-water tail withdrawal test was performed as described previously. In brief, the hot-water tail withdrawal test was conducted using a water bath maintained at 55 ± 0.5 °C. The distal 3 cm section of the mouse’s tail was immersed perpendicularly into the hot water. The duration for which the tail remained in the water was recorded as the initial tail withdrawal latency (TWL0). […] Following the administration of a single dose of the test compound (20 mg/kg, i.v.) or vehicle, the subsequent tail withdrawal latency (TWL) was measured at various time intervals (15, 30, 45, 60, and 90 min). To prevent potential tissue damage, a maximum cutoff latency of 16 s was enforced. Antinociception was quantified using the percentage of maximal possible effect (%MPE), calculated as %MPE = 100 × (TWL − TWL0)/(16 − TWL0).

mice [4] = experiment: Formalin paw-licking test; assay type: in vivo, CD-1 mice; details: 20 mg/kg i.v. tail vein, Phase II
Method: as §1
The formalin injection assay was performed as described previously. […] After 15 min, 30 µL of a 2.7% formalin solution was administered into the right hind paw of each mouse. Then, the mice were put into the cage and their behaviors were observed. The antinociception rate was quantified as the percentage of maximal possible effect (%MPE), calculated as %MPE = 100 × (PLTV − PLTT)/PLTV; PLTV and PLTT represent the average paw-licking duration during Phase II for the vehicle and test groups, respectively.

human μ-opioid receptor = target: T1, human μ-opioid receptor (Homo sapiens, UniProt P35372); experiment: cell-based; assay type: cell-based; details: CHO/μOR cells, n = 3
T1 construct: expressed in transfected cells; host or cells: CHO (CHO/μOR cells)
Method: The inhibition assay was performed as described previously. In brief, tested compound dilutions (with final concentrations of 100 µM, 50 µM, 10 µM, 1 µM, 500 nM, 100 nM, 50 nM, 10 nM, 1 nM, and 100 pM) were produced in saline or DMSO in triplicate. CHO/μOR cells were suspended in the assay buffer and counted, maintaining a cell density of 2000 cells per well, with 5 µL from each well seeded into a 384-well plate. Subsequently, 5 µL of the tested compound solution per well was dispensed into the plate, which was then placed in a 25 °C incubator and incubated in the dark for 30 min. Next, 10 µL of cAMP standard working solution was added to the empty wells of the plate, followed by the addition of 5 µL of Eu-cAMP and Anti-cAMP per well. The plate was subsequently placed back in a 25 °C incubator and further incubated in the dark for 1 h.
CHO cells expressing the human μ-opioid receptor were cultivated for the assessment of compound effects. […] Cells collected during the exponential phase of growth were dissociated without enzymes to preserve receptor integrity, resuspended in assay buffer, and counted to achieve a uniform concentration. Cell density was adjusted to 2000 cells per well in a 384-well plate, promoting uniform distribution and optimal receptor presence. Post-seeding at 25 °C in darkness facilitated cell adherence and stabilization prior to compound introduction. Compounds were added in serial dilutions, with meticulous dispensing techniques ensuring dose uniformity. Following a 1 h incubation at 25 °C, TR-FRET reagents were applied to measure cAMP levels, indicative of μOR activity. The Envision system recorded these levels, quantifying compound inhibitory effects. Meticulous aseptic techniques and vigilant monitoring were imperative throughout to guarantee data precision from the assay.

[5] = target: T2, human μOR β-arrestin2 pathway (Homo sapiens, UniProt P35372); experiment: cell-based; assay type: cell-based; details: U2OS/human μOR β-arrestin cells, n = 3
T2 construct: β-galactosidase enzyme fragment (PathHunter complementation tag); host or cells: U2OS (U2OS/human μOR β-arrestin cells)
Method: In this assay, optical signal values were detected employing the PathHunter® (DiscoverX, Shanghai, China) Detection Kit assay method. The agonistic activity of tested compounds on the human μOR β-arrestin2 pathway was quantified using a β-galactosidase-based enzyme fragment complementation assay. In brief, tested compound dilutions (with final concentrations of 100 μM, 50 μM, 10 μM, 1 μM, 500 nM, 100 nM, 50 nM, 10 nM, 1 nM, and 100 pM) were produced in saline or DMSO in triplicate. Next, 100 nL of the tested compound solution per well was dispensed into a 384-well cell culture plate. The U2OS/human μOR β-arrestin cells were resuspended in Opti-MEM and counted to achieve a cell density of 4000 cells per well, and 20 μL from each well was seeded into the 384-well cell culture plate. The plate was subsequently incubated at 37 °C in the dark for 120 min. Post-incubation, the cell plate was equilibrated to room temperature for 10–20 min, and 5 μL of the detection reagent were added to each well. Following a 60 min incubation at 25 °C, chemiluminescent readings were obtained using the envision system.
The cells were maintained at 37 °C with 5% CO2 in McCoy’s 5a medium with supplements and cultivated utilizing precise techniques to ensure accurate, reproducible results. Cells were gently dissociated for assays to maintain receptor integrity and resuspended in Opti-MEM® for compatibility with the PathHunter® (DiscoverX, Shanghai, China). Detection Kit. Cell density was adjusted to 4000 cells per well in a 384-well plate, to ensure that a uniform monolayer was established for the β-galactosidase assay. After seeding and incubation in the dark at 37 °C to facilitate cell attachment, the plates were equilibrated to room temperature prior to compound treatment. Serial dilutions of the compounds were assessed for pharmacological effect. A detection reagent was then added to measure β-galactosidase activity as indicative of μ-opioid receptor and β-arrestin2 interaction. Following reagent incubation, chemiluminescence was quantified, providing quantitative data on compound agonistic activity. Throughout, meticulous aseptic technique and strict adherence to protocols were imperative to ensure the integrity of the pharmacological data derived from these studies.

mice [6] = experiment: Physical dependence (naloxone-precipitated withdrawal jumping); details: i.v. once daily for 5 days, PZM21 and 6a 20 mg/kg, morphine 2 mg/kg, jumps over 20 min
Method: as §2

T2 sequence (P35372 whole entry, the tested form may be a part): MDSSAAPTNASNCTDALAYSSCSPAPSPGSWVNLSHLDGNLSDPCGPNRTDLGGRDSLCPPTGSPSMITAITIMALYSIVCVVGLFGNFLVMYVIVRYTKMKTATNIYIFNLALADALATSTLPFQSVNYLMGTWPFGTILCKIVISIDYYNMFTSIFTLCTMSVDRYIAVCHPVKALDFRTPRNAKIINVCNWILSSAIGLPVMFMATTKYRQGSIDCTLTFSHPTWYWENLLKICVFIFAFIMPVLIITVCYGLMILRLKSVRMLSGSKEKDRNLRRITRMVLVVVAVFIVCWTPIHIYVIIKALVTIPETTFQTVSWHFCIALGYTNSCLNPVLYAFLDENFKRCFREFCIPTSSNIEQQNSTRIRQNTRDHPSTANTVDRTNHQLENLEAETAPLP
T1 sequence (P35372 whole entry): as the sequence (P35372 whole entry, the tested form may be a part) above

**Q.** With `CN(C)[C@H](CNC(=O)NCc1ccccc1)Cc1cccc2ccccc12` [6a, (S)-1-benzyl-3-(2-(dimethylamino)-3-(naphthalen-1-yl)propyl) urea] as the compound, how does the “respiratory depression: partial pressure of oxygen in blood vs vehicle” value (mice [1]) read?
**A.** does not induce acute respiratory depression

**Q.** What about the “analgesia rate (%MPE), acetic acid-induced writhing” value (mice [2]) of the same compound?
**A.** exceeding 97%

**Q.** What about the “pain inhibition rate (%MPE), hot-water tail-withdrawal test” value (mice [3]) of the same compound?
**A.** 50.19%

**Q.** And the “antinociceptive efficacy (%MPE), formalin-induced paw licking, second phase” value (mice [4])?
**A.** 73.80%

**Q.** What about the EC50 (human μ-opioid receptor; cAMP inhibition, "-" = no measurable activity, read-out: EC50 (nM) (95% CI), µOR-Gi/o activation assay) of the same compound?
**A.** 10.8 nM

**Q.** What about the Emax (human μ-opioid receptor; at the concentration printed in parentheses in the cell, read-out: Max Effect ± SEM (%), µOR-Gi/o activation assay) of the same compound?
**A.** 51.9 ± 1.06%

**Q.** What about the Emax ([5]; at the concentration printed in parentheses in the cell, read-out: Max Effect ± SEM (%), µOR β-arrestin recruitment assay) of the same compound?
**A.** 0.38 ± 0.21%

**Q.** What about the EC50 ([5]; "-" = no measurable activity, read-out: EC50 (nM) (95% CI), µOR β-arrestin recruitment assay) of the same compound?
**A.** > 100000 nM

**Q.** What about the “physical dependence: jumping after naloxone-precipitated withdrawal vs vehicle” value (mice [6]) of the same compound?
**A.** does not induce physical dependence or withdrawal symptoms
